# Laboratory results taken from article PMC9007350, “Aurintricarboxylic acid is a canonical disruptor of the TAZ-TEAD transcriptional complex” (PLoS ONE, 2022).
# Key:
# [1] = target: T1, VGLL1-TEAD complex (mouse Vgll1 (26-51) probe, human TEAD4 (217-434)) (Homo sapiens, UniProt Q15561); assay: Vgll1-TEAD fluorescence polarization assay; assay type: binding; conditions: TEAD4 350 nM, Vgll1 probe 25 nM
# T1 construct: made in house
# Experimental: Human YAP (61–100), human TAZ (23–57) and mouse Vgll1 (26–51) peptide probes were used; all the probes had carboxyfluorescein labels. Human TEAD4 (217–434) was used in the assay at a concentration of 350 nM and the peptide probe concentration was 25 nM. Disruptors were titrated at concentrations ranging from 0–150 μM to the probe-TEAD complex, and the mixtures were incubated at 25°C for 20 min. Then, polarization measurements were taken using a Victor3 (PerkinElmer) plate reader.
# [2] = system: CYR61, CTGF, AMOTL2 and ANKRD1 transcripts in TC-expressing NIH3T3 cells; assay: qPCR of canonical TAZ target genes; assay type: cell-based, murine; conditions: ATA 10 μM, 48 h
# Experimental: NIH3T3 and HEK293 cells were obtained from the American Type Tissue Collection (ATCC, Manassas, VA) and cultured in DMEM containing 10% fetal bovine serum and penicillin/streptomycin. A TEAD dual luciferase reporter assay was performed as previously described. Cells were treated with vehicle control or ATA (10 μM) for 48 h before measuring the luciferase activity or processing the samples for RNA extraction. Each experiment was repeated at least 2-3 times. NIH3T3 cells were used. The extracted RNA (RNeasy Mini, Qiagen) from treated cells was either used for qPCR measurements or sent for bulk RNA-Seq. Sequencing runs were performed on an Illumina HiSeq 4000 sequencer (Genewiz). […] Paired end reads were aligned to the murine genome ([…]2 [27]. Raw count files were generated with featureCounts using a corresponding GTF reference. Differential gene expression analysis was performed with DESeq2 [29]. Transcripts were considered to be differentially expressed if the false discovery rate < 0.05 and Log2FC > 2. When performing differential gene expression for GSEA analysis, the Limma package was used (<5 CPM filtering) with t-scores used for rank statistics. GSEA plots and statistics were generated with FGSEA with custom gene sets. Raw sequencing reads and processed files have been deposited in the GEO repository (data will be uploaded upon manuscript acceptance). […]
# [3] = system: NIH3T3 expressing TAZ S89A; assay: Soft agar colony growth assay, TAZ S89A; assay type: cell-based
# Experimental: Soft agar colony growth assay was performed as previously described. The colonies were counted using Image-Pro Plus 7.0 software (Media Cybernetics). ATA cytotoxicity was assessed using the CyQUANT LDH Cytotoxicity Assay Kit (ThermoFisher) and was performed as per the manufacturer’s protocol.
# [4] = system: TC/TEAD transcriptional profile in TC-expressing NIH3T3 cells; assay: Bulk RNA-Seq, differential gene expression and GSEA (TC ATA v. TC DMSO); assay type: cell-based, murine
# Experimental: NIH3T3 and HEK293 cells were obtained from the American Type Tissue Collection (ATCC, Manassas, VA) and cultured in DMEM containing 10% fetal bovine serum and penicillin/streptomycin. A TEAD dual luciferase reporter assay was performed as previously described. Cells were treated with vehicle control or ATA (10 μM) for 48 h before measuring the luciferase activity or processing the samples for RNA extraction. Each experiment was repeated at least 2-3 times. NIH3T3 cells were used. The extracted RNA (RNeasy Mini, Qiagen) from treated cells was either used for qPCR measurements or sent for bulk RNA-Seq. Sequencing runs were performed on an Illumina HiSeq 4000 sequencer (Genewiz). Subsequent bioinformatics analysis was performed in the Galaxy Project platform. Paired end reads were aligned to the murine genome ([…]2 [27]. Raw count files were generated with featureCounts using a corresponding GTF reference. Differential gene expression analysis was performed with DESeq2 [29]. Transcripts were considered to be differentially expressed if the false discovery rate < 0.05 and Log2FC > 2. When performing differential gene expression for GSEA analysis, the Limma package was used (<5 CPM filtering) with t-scores used for rank statistics. GSEA plots and statistics were generated with FGSEA with custom gene sets. Raw sequencing reads and processed files have been deposited in the GEO repository (data will be uploaded upon manuscript acceptance). The Universal Probe Library probes (Roche) and the associated primer sequences for the qPCR targets are listed below: […]
# T1 sequence (Q15561 217-434, one chain of several): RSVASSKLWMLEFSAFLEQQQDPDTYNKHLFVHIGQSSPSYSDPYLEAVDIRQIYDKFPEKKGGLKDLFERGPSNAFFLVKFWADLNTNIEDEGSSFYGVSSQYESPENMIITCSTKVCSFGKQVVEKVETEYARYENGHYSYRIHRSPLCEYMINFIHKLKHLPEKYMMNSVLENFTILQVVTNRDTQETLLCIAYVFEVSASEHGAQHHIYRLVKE
compound,measurement,setting,value
"O=C(O)C1=CC(=C(c2ccc(O)c(C(=O)O)c2)c2ccc(O)c(C(=O)O)c2)C=CC1=O [ATA, aurintricarboxylic acid]",disruption of the VGLL1-TEAD interaction (in words),[1],ineffective
same,"transcripts of canonical TAZ target genes (CYR61, CTGF, AMOTL2, ANKRD1) by qPCR",[2],suppression of these transcripts
same,soft agar growth driven by TAZ S89A,[3],inhibited soft agar growth
same,"Log2 Fold Change, Pkig (ENSMUSG00000035268)",[4],0.2955
same,GSEA normalized enrichment score (NES) for the 248 TC-upregulated genes,"[4]; ATA-treated vs vehicle, TC-expressing NIH3T3, 10 μM, 48 h, P = 0.0036",-2.027
same,"Log2 Fold Change, Cep83os (ENSMUSG00000097164)","[4]; TC ATA v. TC DMSO, RNA-Seq differential gene expression, gene Cep83os",0.5451
same,"Log2 Fold Change, P3h1 (ENSMUSG00000028641)","[4]; TC ATA v. TC DMSO, RNA-Seq differential gene expression, gene P3h1",0.1936
same,"Log2 Fold Change, Per1 (ENSMUSG00000020893)","[4]; TC ATA v. TC DMSO, RNA-Seq differential gene expression, gene Per1",0.3113
same,"Log2 Fold Change, Spn (ENSMUSG00000051457)","[4]; TC ATA v. TC DMSO, RNA-Seq differential gene expression, gene Spn",0.7001
same,"Log2 Fold Change, Wnt9a (ENSMUSG00000000126)","[4]; TC ATA v. TC DMSO, RNA-Seq differential gene expression, gene Wnt9a",-0.2847
same,Log2 Fold Change,"[4]; gene AW551984, TC ATA v. TC DMSO",0.7046
same,Log2 Fold Change,"[4]; gene Abcd2, TC ATA v. TC DMSO",0.775
same,Log2 Fold Change,"[4]; gene Adgra2, TC ATA v. TC DMSO",-0.4459
same,Log2 Fold Change,"[4]; gene Adgrl2, TC ATA v. TC DMSO",0.4171
same,Log2 Fold Change,"[4]; gene Angpt2, TC ATA v. TC DMSO",1.066
same,Log2 Fold Change,"[4]; gene Angptl2, TC ATA v. TC DMSO",-0.3301
same,Log2 Fold Change,"[4]; gene Asb4, TC ATA v. TC DMSO",0.7498
same,Log2 Fold Change,"[4]; gene Asic1, TC ATA v. TC DMSO",0.4827
same,Log2 Fold Change,"[4]; gene Atg9b, TC ATA v. TC DMSO",-1.183
same,Log2 Fold Change,"[4]; gene Atp1a2, TC ATA v. TC DMSO",0.776
same,Log2 Fold Change,"[4]; gene Atp1b1, TC ATA v. TC DMSO",0.4541
same,Log2 Fold Change,"[4]; gene Cacng7, TC ATA v. TC DMSO",0.4229
same,Log2 Fold Change,"[4]; gene Cbr2, TC ATA v. TC DMSO",1.297
same,Log2 Fold Change,"[4]; gene Ccdc80, TC ATA v. TC DMSO",0.4999
same,Log2 Fold Change,"[4]; gene Cd24a, TC ATA v. TC DMSO",0.8435
same,Log2 Fold Change,"[4]; gene Cd81, TC ATA v. TC DMSO",0.3883
same,Log2 Fold Change,"[4]; gene Chrnb1, TC ATA v. TC DMSO",-0.628
same,Log2 Fold Change,"[4]; gene Ckmt2, TC ATA v. TC DMSO",0.9415
same,Log2 Fold Change,"[4]; gene Clu, TC ATA v. TC DMSO",0.6162
same,Log2 Fold Change,"[4]; gene Col4a6, TC ATA v. TC DMSO",0.4089
same,Log2 Fold Change,"[4]; gene Coq8a, TC ATA v. TC DMSO",0.862
same,Log2 Fold Change,"[4]; gene Creg1, TC ATA v. TC DMSO",0.425
same,Log2 Fold Change,"[4]; gene Csrp2, TC ATA v. TC DMSO",-0.43
same,Log2 Fold Change,"[4]; gene Cth, TC ATA v. TC DMSO",-0.3812
same,Log2 Fold Change,"[4]; gene Dhrs3, TC ATA v. TC DMSO",0.4703
same,Log2 Fold Change,"[4]; gene Dlk1, TC ATA v. TC DMSO",0.4509
same,Log2 Fold Change,"[4]; gene Dmpk, TC ATA v. TC DMSO",0.6567
same,Log2 Fold Change,"[4]; gene Dpep1, TC ATA v. TC DMSO",0.7304
same,Log2 Fold Change,"[4]; gene Epha4, TC ATA v. TC DMSO",0.8248
same,Log2 Fold Change,"[4]; gene Ercc1, TC ATA v. TC DMSO",-0.7217
same,Log2 Fold Change,"[4]; gene Errfi1, TC ATA v. TC DMSO",-0.4719
same,Log2 Fold Change,"[4]; gene Fabp3, TC ATA v. TC DMSO",1.14
same,Log2 Fold Change,"[4]; gene Fam13c, TC ATA v. TC DMSO",0.6886
same,Log2 Fold Change,"[4]; gene Fam110c, TC ATA v. TC DMSO",-0.7995
same,Log2 Fold Change,"[4]; gene Fam114a1, TC ATA v. TC DMSO",0.3512
same,Log2 Fold Change,"[4]; gene Fgf7, TC ATA v. TC DMSO",0.4417
same,Log2 Fold Change,"[4]; gene Fn1, TC ATA v. TC DMSO",0.5505
same,Log2 Fold Change,"[4]; gene Galnt15, TC ATA v. TC DMSO",1.35
same,Log2 Fold Change,"[4]; gene Gas1, TC ATA v. TC DMSO",0.4145
same,Log2 Fold Change,"[4]; gene Ggct, TC ATA v. TC DMSO",-0.7955
same,Log2 Fold Change,"[4]; gene Gm49774, TC ATA v. TC DMSO",-0.6084
same,Log2 Fold Change,"[4]; gene Gse1, TC ATA v. TC DMSO",0.7002
same,Log2 Fold Change,"[4]; gene Gsta3, TC ATA v. TC DMSO",0.7075
same,Log2 Fold Change,"[4]; gene Gstm1, TC ATA v. TC DMSO",0.6142
same,Log2 Fold Change,"[4]; gene Hivep3, TC ATA v. TC DMSO",0.5196
